Source: patent US9216968B2, “Heterocyclic derivative and pharmaceutical drug” (NIPPON SHINYAKU CO., LTD., priority 2011, dated 2015)
Where a name gives a salt, the structure may show the parent alone.

Legend:
human mPGES-1 = human mPGES-1 (Homo sapiens (Human), UniProt O14684); experiment: mPGES-1 inhibiting activity (microsome fractions, PGE2 by HTRF); assay type: biochemical; details: microsomes from CHO-K1 cells transfected with human mPGES-1; PGH2 1 μM, 4° C., 60 seconds; read-out: mPGES-1 Inhibition IC50
Summary of the method: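 PGE2 formation read by HTRF after 60 s at 4 °C with 1 μM PGH2 substrate, following 20 min compound preincubation (1% DMSO) with human mPGES-1 microsomes from transfected CHO-K1 cells. Buffer: potassium phosphate, reduced glutathione, pH 7.4; IC50 from activity relative to enzyme-free blank.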

A549 cells = experiment: Inhibition of PGE2 production in A549 cell (IL-1β stimulated); assay type: cell-based, human; details: Homo sapiens, A549, 24 h, IL-1β 5 ng/well, PGE2 in culture medium
Summary of the method: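 A549 cells preincubated 60 min with compound in RPMI/3% FBS (final DMSO 0.10), then stimulated with IL-1β (5 ng/well) for 24 h at 37 °C. PGE2 measured by HTRF and PGF2α by EIA in medium; IC50 from inhibition relative to stimulated minus unstimulated production.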

Chain of human mPGES-1 (O14684 whole entry): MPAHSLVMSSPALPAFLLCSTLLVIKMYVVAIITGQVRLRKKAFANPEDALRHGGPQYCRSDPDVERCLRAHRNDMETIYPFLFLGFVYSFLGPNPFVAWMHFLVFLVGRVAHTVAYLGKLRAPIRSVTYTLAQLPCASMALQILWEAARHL

SMILES | IC50 (human mPGES-1) [µM] | IC50 (A549 cells) [µM]
COCc1nc2c(C(=O)Nc3ccc(C)cc3)cc(NC(=O)c3ccccc3C(F)(F)F)cc2[nH]1 [Example 23, 2-(Methoxymethyl)-N-(4-methylphenyl)-6-({[2-(trifluoromethyl)phenyl]carbonyl}amino)-1H-benzimidazole-4-carboxamide hydrochloride] | 0.0072 | 0.116
COCc1nc2c(C(=O)NCc3cccc(Cl)c3C)cc(NC(=O)c3ccccc3C(F)(F)F)cc2[nH]1 [Example 39, N-(3-Chloro-2-methylbenzyl)-2-(methoxymethyl)-6-({[2-(trifluoromethyl)phenyl]carbonyl}amino)-1H-benzimidazole-4-carboxamide hydrochloride] | 0.0104 | 0.237
Cc1c(Cl)cccc1NC(=O)c1cc(NC(=O)c2ccccc2C(F)(F)F)cc2[nH]c([C@@H]3CCCN3)nc12 [Example 71, N-(3-Chloro-2-methylphenyl)-2-[(2S)-pyrrolidin-2-yl]-6-({[2-(trifluoromethyl)phenyl]carbonyl}amino)-1H-benzimidazole-4-carboxamide dihydrochloride] | 0.0331 | 0.227
Cc1c(Cl)cccc1NC(=O)c1cc(NC(=O)c2ccccc2C(F)(F)F)cc2[nH]c([C@H]3CCC(=O)N3)nc12 [Example 131, N-(3-Chloro-2-methylphenyl)-2-[(2R)-5-oxopyrrolidin-2-yl]-6-({[2-(trifluoromethyl)phenyl]carbonyl}amino)-1H-benzimidazole-4-carboxamide hydrochloride] | 0.0328 | > 10
Cc1c(Cl)cccc1NC(=O)c1cc(NC(=O)c2ccccc2C(F)(F)F)cc2[nH]c(NCC(=O)O)nc12 [Example 161, N-{4-[(3-Chloro-2-methylphenyl)carbamoyl]-6-({[2-(trifluoromethyl)phenyl]carbonyl}amino)-1H-benzimidazol-2-yl}glycine hydrochloride] | 0.0038 | > 10
COCCNc1nc2c(C(=O)Nc3cccc(Cl)c3C)cc(NC(=O)c3ccccc3C(F)(F)F)cc2[nH]1 [Example 136, N-(3-Chloro-2-methylphenyl)-2-[(2-methoxyethyl)amino]-6-({[2-(trifluoromethyl)phenyl]carbonyl}amino)-1H-benzimidazole-4-carboxamide hydrochloride] | 0.0024 | 0.0619
COCc1nc2c(C(=O)Nc3cccc4c3CCCC4)cc(NC(=O)c3ccccc3C(F)(F)F)cc2[nH]1 [Example 34, 2-(Methoxymethyl)-N-(5,6,7,8-tetrahydronaphthalen-1-yl)-6-({[2-(trifluoromethyl)phenyl]carbonyl}amino)-1H-benzimidazole-4-carboxamide hydrochloride] | 0.0049 | 0.0276
Cc1c(Cl)cccc1NC(=O)c1cc(NC(=O)c2ccccc2C(F)(F)F)cc2[nH]c(NCCN3CCOCC3)nc12 [Example 146, N-(3-Chloro-2-methylphenyl)-2-{[2-(morpholin-4-yl)ethyl]amino}-6-({[2-(trifluoromethyl)phenyl]carbonyl}amino)-1H-benzimidazole-4-carboxamide hydrochloride] | 0.0031 | 0.129
CCOCc1nc2c(C(=O)Nc3cccc(Cl)c3C)cc(NC(=O)c3ccccc3C(F)(F)F)cc2[nH]1 [Example 79, N-(3-Chloro-2-methylphenyl)-2-(ethoxymethyl)-6-({[2-(trifluoromethyl)phenyl]carbonyl}amino)-1H-benzimidazole-4-carboxamide hydrochloride] | 0.015 | 0.285
CN(C)c1nc2c(C(=O)Nc3ccc(C(C)(C)C)cc3)cc(NC(=O)c3ccccc3C(F)(F)F)cc2[nH]1 [Example 203, N-(4-tert-Butylphenyl)-2-(dimethylamino)-6-({[2-(trifluoromethyl)phenyl]carbonyl}amino)-1H-benzimidazole-4-carboxamide hydrochloride] | 0.0014 | 0.0052
COCc1nc2c(C(=O)Nc3cccc(Cl)c3C)cc(NC(=O)c3c(Cl)cncc3Cl)cc2[nH]1 [Example 246, N-(3-Chloro-2-methylphenyl)-6-{[(3,5-dichloropyridin-4-yl)carbonyl]amino}-2-(methoxymethyl)-1H-benzimidazole-4-carboxamide hydrochloride] | 0.0359 | 0.132
Cc1c(Cl)cccc1NC(=O)c1cc(NC(=O)c2ccccc2C(F)(F)F)cc2[nH]c(NCC(C)(C)CN(C)C)nc12 [Example 154, N-(3-Chloro-2-methylphenyl)-2-{[3-(dimethylamino)-2,2-dimethylpropyl]amino}-6-({[2-(trifluoromethyl)phenyl]carbonyl}amino)-1H-benzimidazole-4-carboxamide hydrochloride] | 0.02 | 0.0644
Cc1c(Cl)cccc1NC(=O)c1cc(NC(=O)c2ccccc2C(F)(F)F)cc2[nH]c(NCC(C)(C)CO)nc12 [Example 158, N-(3-Chloro-2-methylphenyl)-2-[(3-hydroxy-2,2-dimethylpropyl)amino]-6-({[2-(trifluoromethyl)phenyl]carbonyl}amino)-1H-benzimidazole-4-carboxamide hydrochloride] | 0.0085 | 0.0822
Cc1ccc(NC(=O)c2cc(NC(=O)c3ccccc3C(F)(F)F)cc3[nH]c(N(C)C)nc23)cc1Cl [Example 202, N-(3-Chloro-4-methylphenyl)-2-(dimethylamino)-6-({[2-(trifluoromethyl)phenyl]carbonyl}amino)-1H-benzimidazole-4-carboxamide hydrochloride] | 0.0049 | 0.0059
CN(C)c1nc2c(C(=O)Nc3ccc4c(c3)CCC4)cc(NC(=O)c3ccccc3C(F)(F)F)cc2[nH]1 [Example 204, N-(2,3-Dihydro-1H-inden-5-yl)-2-(dimethylamino)-6-({[2-(trifluoromethyl)phenyl]carbonyl}amino)-1H-benzimidazole-4-carb oxamide hydrochloride] | 0.001 | 0.0122
Cc1c(Cl)cccc1NC(=O)c1cc(NC(=O)c2ccccc2C(F)(F)F)cc2[nH]c(CN(C)C)nc12 [Example 58, N-(3-Chloro-2-methylphenyl)-2-[(dimethylamino)methyl]-6-({[2-(trifluoromethyl)phenyl]carbonyl}amino)-1H-benzimidazole-4-carboxamide hydrochloride] | 0.0054 | 0.157
COCc1nc2c(C(=O)Nc3ccc(C(F)(F)F)cc3)cc(NC(=O)c3ccccc3C(F)(F)F)cc2[nH]1 [Example 28, 2-(Methoxymethyl)-N-[4-(trifluoromethyl)phenyl]-6-({[2-(trifluoromethyl)phenyl]carbonyl}amino)-1H-benzimidazole-4-carboxamide hydrochloride] | 0.0033 | 0.114
COCc1nc2c(C(=O)Nc3cccc(Cl)c3C)cc(NC(=O)c3c(Cl)cccc3Br)cc2[nH]1 [Example 102, 6-{[(2-Bromo-6-chlorophenyl)carbonyl]amino}-N-(3-chloro-2-methylphenyl)-2-(methoxymethyl)-1H-benzimidazole-4-carboxamide hydrochloride] | 0.0016 | 0.0491
Cc1nc2c(C(=O)NC3CCC3)cc(NC(=O)c3ccccc3C(F)(F)F)cc2[nH]1 [Example 16, N-Cyclobutyl-2-methyl-6-({[2-(trifluoromethyl)phenyl]carbonyl}amino)-1H-benzimidazole-4-carboxamide] | 0.0639 | 1.3
Cc1nc2c(C(=O)NC3CCCCC3)cc(NC(=O)c3ccccc3C(F)(F)F)cc2[nH]1 [Example 13, N-Cyclohexyl-2-methyl-6-({[2-(trifluoromethyl)phenyl]carbonyl}amino)-1H-benzimidazole-4-carboxamide hydrochloride] | 0.0351 | 0.0756
CCn1cnc2c(C(=O)NC3CCCCC3)cc(NC(=O)c3ccccc3C(F)(F)F)cc21 [Example 50, N-Cyclohexyl-1-ethyl-6-({[2-(trifluoromethyl)phenyl]carbonyl}amino)-1H-benzimidazole-4-carboxamide] | 0.14 | 0.81
Cc1ccc(NC(=O)c2cc(NC(=O)c3cc(Cl)ccc3Cl)cc3[nH]c(N(C)C)nc23)cc1Cl [Example 207, N-(3-Chloro-4-methylphenyl)-6-{[(2,5-dichlorophenyl)carbonyl]amino}-2-(dimethylamino)-1H-benzimidazole-4-carboxamide hydrochloride] | 0.0036 | 0.0062
CCOCCOc1ccc(Cl)c(C(=O)Nc2cc(C(=O)Nc3cccc(Cl)c3C)c3nc(COC)[nH]c3c2)c1 [Example 115, 6-({[2-Chloro-5-(2-ethoxyethoxy)phenyl]carbonyl}amino)-N-(3-chloro-2-methylphenyl)-2-(methoxymethyl)-1H-benzimidazole-4-carboxamide hydrochloride] | 0.0115 | 0.037
COCc1nc2c(C(=O)Nc3cccc(Cl)c3C)cc(NC(=O)c3ccc(F)cc3Cl)cc2[nH]1 [Example 93, 6-{[(2-Chloro-4-fluorophenyl)carbonyl]amino}-N-(3-chloro-2-methylphenyl)-2-methoxymethyl-1H-benzimidazole-4-carboxamide hydrochloride] | 0.0042 | 0.153
Cc1c(Cl)cccc1NC(=O)c1cc(NC(=O)c2ccccc2C(F)(F)F)cc2[nH]c(Cl)nc12 [Example 135, 2-Chloro-N-(3-chloro-2-methylphenyl)-6-({[2-(trifluoromethyl)phenyl]carbonyl}amino)-1H-benzimidazole-4-carboxamide] | 0.0003 | 0.0873
